According to patent publication US8614085B2, “Yeast with increased butanol tolerance involving a multidrug efflux pump gene” (Butamax(TM) Advanced Biofuels LLC, priority 2009, dated 2013):
Like-named read-outs stand apart in the source and are kept apart here.

Experiments:
[1] = test system: homozygous diploid strain containing a PDR5 deletion mutation (strain #32409, S04); assay: Growth yield (OD600) of homozygous diploid PDR5 deletion strain in YPD medium with butanol; format: cell-based, Saccharomyces cerevisiae; settings: for OD600 after 23 hours incubation with 1-butanol / OD600 after 24 hours incubation with isobutanol: diploid PDR5 mutant, YPD, 30° C., inoculum OD600 0.01, average +/- SD; for growth yield of strain with the PDR5 deletion compared to BY4743: diploid
[2] = test system: diploid parental strain BY4743; settings: YPD, 30° C., inoculum OD600 0.01, average +/- SD
Experimental: The inoculum OD600 was 0.01. The OD600 of each culture was measured after 24 hours incubation on a roller drum at 30° C. Triplicate cultures of each strain were tested. The average and standard deviation of the 24 hour growth yield measurements in each isobutanol concentration are given in Table 5.
The inoculum OD600 was 0.01. The OD600 of each culture was measured after 23 hours incubation on a roller drum at 30° C. Triplicate cultures of each strain were tested.

[3] = test system: haploid strain containing a PDR5 deletion mutation (strain #2409); assay: Growth yield (OD600) of haploid PDR5 deletion strain in YPD medium with isobutanol; format: cell-based, Saccharomyces cerevisiae; settings: for OD600 after 24 hours incubation with isobutanol: haploid PDR5 mutant, YPD, 30° C., inoculum OD600 0.01, average +/- SD; for growth yield of strain with the PDR5 deletion compared to BY4741: haploid, 24 hours
Experimental: (§1) A haploid strain of Saccharomyces cerevisiae containing a PDR5 deletion mutation (strain #2409) was obtained from Open Biosystems (Huntsville, Ala.) The deletion strain was made as part of the Saccharomyces Genome Deletion Project described in Winzeler al. (Science, 285:901-906, (1999)). […] The inoculum OD600 was 0.01. […] Duplicate cultures of each strain were tested.

parental strain BY4741 = assay: Growth yield (OD600) of haploid parental strain in YPD medium with isobutanol; format: cell-based, Saccharomyces cerevisiae; settings: 30° C., inoculum OD600 0.01, average +/- SD
Experimental: as §1

CCCCO [1-Butanol, 1-butanol]
OD600 after 23 hours incubation with 1-butanol ([1]; 0.625 % w/v 1-butanol): 3.27 +/− 0.23 | OD600 after 23 hours incubation with 1-butanol ([1]; 0.75 % w/v 1-butanol): 0.40 +/− 0.02 | OD600 after 23 hours incubation with 1-butanol ([1]; 0.875 % w/v 1-butanol): 0.27 +/− 0.01 | growth yield of strain with the PDR5 deletion compared to BY4743 ([1]; 0.625% w/v 1-butanol, 23 hours): 1.4 fold | growth yield of strain with the PDR5 deletion compared to BY4743 ([1]; 0.75% w/v 1-butanol, 23 hours): 1.3 fold | growth yield of strain with the PDR5 deletion compared to BY4743 ([1]; 0.875% w/v 1-butanol, 23 hours): 1.2 fold | OD600 after 23 hours incubation with 1-butanol ([2]; 0.625 % w/v 1-butanol): 2.38 +/− 0.25 | OD600 after 23 hours incubation with 1-butanol ([2]; 0.75 % w/v 1-butanol): 0.30 +/− 0.03 | OD600 after 23 hours incubation with 1-butanol ([2]; 0.875 % w/v 1-butanol): 0.22 +/− 0.01

CC(C)CO [Isobutanol, isobutanol]
OD600 after 24 hours incubation with isobutanol ([1]; 0.25 % w/v isobutanol): 7.51 +/− 0.11 | OD600 after 24 hours incubation with isobutanol ([1]; 0.5 % w/v isobutanol): 7.17 +/− 0.12 | OD600 after 24 hours incubation with isobutanol ([1]; 0.75 % w/v isobutanol): 4.91 +/− 0.29 | OD600 after 24 hours incubation with isobutanol ([1]; 0.825 % w/v isobutanol): 1.67 +/− 0.13 | OD600 after 24 hours incubation with isobutanol ([1]; 1 % w/v isobutanol): 0.16 +/− 0.01 | growth yield of strain with the PDR5 deletion compared to BY4743 ([1]; 0.75% w/v isobutanol, 24 hours): 2.7 fold | growth yield of strain with the PDR5 deletion compared to BY4743 ([1]; 0.825% w/v isobutanol, 24 hours): 8.8 fold | OD600 after 24 hours incubation with isobutanol ([3]; 0.75 % w/v isobutanol): 4.71 +/− 0.53 | OD600 after 24 hours incubation with isobutanol ([3]; 0.875 % w/v isobutanol): 2.45 +/− 0.42 | OD600 after 24 hours incubation with isobutanol ([3]; 1 % w/v isobutanol): 0.76 +/− 0.13 | growth yield of strain with the PDR5 deletion compared to BY4741 ([3]; 0.75% w/v isobutanol): 1.8 fold | growth yield of strain with the PDR5 deletion compared to BY4741 ([3]; 0.825% w/v isobutanol): 3.5 fold | growth yield of strain with the PDR5 deletion compared to BY4741 ([3]; 1% w/v isobutanol): 8 fold | OD600 after 24 hours incubation with isobutanol ([2]; 0.25 % w/v isobutanol): 7.36 +/− 0.04 | OD600 after 24 hours incubation with isobutanol ([2]; 0.5 % w/v isobutanol): 6.62 +/− 0.24 | OD600 after 24 hours incubation with isobutanol ([2]; 0.75 % w/v isobutanol): 1.84 +/− 0.36 | OD600 after 24 hours incubation with isobutanol ([2]; 0.825 % w/v isobutanol): 0.19 +/− 0.03 | OD600 after 24 hours incubation with isobutanol ([2]; 1 % w/v isobutanol): 0.08 +/− 0.01 | OD600 after 24 hours incubation with isobutanol (parental strain BY4741; 0.75 % w/v isobutanol): 2.68 +/− 0.07 | OD600 after 24 hours incubation with isobutanol (parental strain BY4741; 0.875 % w/v isobutanol): 0.692 +/− 0.04 | OD600 after 24 hours incubation with isobutanol (parental strain BY4741; 1 % w/v isobutanol): 0.09 +/− 0.02
